The source of these data is patent US9532519B2, “Plant growth regulator and use thereof” (Japan Science and Technology Agency, priority 2006, dated 2017).

Holding throughout (assay type): in vivo
For one assay, the system named is Arabidopsis. The assay can be described thus: Influence of oxidized glutathione on growth of Arabidopsis. Particulars: 5 mM H2O2 solution; 8 weeks after the sowing. As for the experimental part:
Specifically, the plants were cultivated with two or three plants in one pod of approximately 65 in width, 65 in depth, and 50 in height, and an appropriate amount of a treatment solution was supplied. The effect of the treatment was evaluated with respect to the number of rosette leaves, the speed of a growing flower stalk, the number of flowers, and the number of seeds.

For assay [1], the system named is strawberry (breed; Eminent garden series, Yokubari-ichigo kurenai (SUMIKA)). The assay can be described thus: Effect of oxidized glutathione on growth of strawberry (number of runners). Particulars: GSH-treated zone.
Another assay concerns eustoma. The assay can be described thus: Effect on promoting growth of roots of eustoma. Particulars: MS culture medium containing 1 mM-GSSG or GSH, grown 1 month, transferred to planter.

From the text for eustoma: In the planter, 2 parts of vermiculite, 1 part of The Kureha Ikubyou Baido soil, and 1 part of vermiculite were layered as a lower layer, a middle layer, and an upper layer, respectively, and the above plants were transferred thereto.

In the case of `OO` [H2O2, reference compound], the “state of plant (life of plant)” value in the assay on Arabidopsis is “withering”.
Regarding `N[C@@H](CCC(=O)N[C@@H](CS)C(=O)NCC(=O)O)C(=O)O` [GSH, reduced glutathione], in assay [1], the “increase in the number of runners relative to the increase of the GSSG-treated zone” value was “approximately one third” and the “number of runners per one stock vs Cont zone” value is recorded as “more number of runners per one stock than a Cont zone”. Further, the “growth of roots vs plants not treated with GSSG” value in the assay on eustoma is given as “subdued growth of roots”.
